Results on seven molecules are retold here after patent publication EP0344995A2, “Method for inhibiting loss of cognitive functions employing a calcium channel blocker alone or in combination with an ace inhibitor” (E.R. SQUIBB & SONS, INC., priority 1988, dated 1989).

In series [1] the test system is Adult male Sprauge-Dawley rats. In words: Extinction of conditioned avoidance response (CAE) in a shuttle box. The class given is in vivo. As to conditions: 10 mg/kg and 30 mg/kg i.p. on the 2 days prior to testing and 1 hour before it, extinction tested during 14 days vs saline control. The method, then:
Adult male Sprauge-Dawley rats (Charles River, Wilmington, MA), age 25 weeks and weighing 350-400 g, are separately housed in stainless steel cages with continuous access to food and water, a 12-hour light-dark cycle, and constant room temperature of 22° to 24 C. All testing took place approximately 6 hours into the dark component of the light-dark cycle and was conducted in a dimly lighted soundproof room using a standard shuttle box device ([…] Valley Electronics #146-04), a plexiglass chamber (50 x 20 x 20 cm) divided by a center barrier 7 cm in height. The conditioned stimulus consisted of a 10-second tone provided by a Sonlert mounted in the midpoint of the ceiling of the chamber. Floor current of 0.8 mA was delivered by a constant current shocker-scrambler ([…] Valley Electronics #133-33). The day before the initiation of training each animal was allowed to explore the experimental chamber for 10 minutes without any tone or shock. Training was conducted for 15 days following the day of experimental chamber exploration. Each animal received 20 trials per day on a 30-second variable interval schedule. No drug treatment was administered during the training period. Shock could be avoided by shuttling from one side of the center barrier to the other during the 10-second tone period. […] Animals which consistently remained on the center barrier were removed from the study. Automatic counters recorded the number of avoidance responses, escapes, and intertrial crossings, while a running time meter recorded the total shock duration for each animal. Animals not meeting the admittance criterion of correct avoidance rsponding on at least 85% of the trials for 4 out of the last 5 days of training were removed from the study. A total of 99 rats reaching the admittance criterion were tested for extinction of conditioned avoidance response (CAE) during 14 days. […] All solutions were prepared fresh and administered i.p. ([…]) on the 2 days prior to testing and then 1 hour before it. […] The tone was simply discontinued and the testing proceeded. Two-way analysis of variance of the CAE data yielded an overall significant difference in the rate of shuttle extinction between treatment groups.

Molecules are shown by their SMILES.

As to `C[C@](N)(Cc1ccc(O)c(O)c1)C(=O)O` [methyldopa], in series [1], the “protective effects on memory of previously learned tasks (rate of shuttle extinction)” value (“protective effects on memory” for short) was “do not have protective effects against loss of memory of previously learned tasks”. The same measure, in the same setting: to `C[C@H](CSC(=O)c1ccccc1)C(=O)N1C[C@@H](Sc2ccccc2)C[C@H]1C(=O)O` [zofenopril] belongs “possess protective effects on memory of previously learned tasks”.

Regarding `C[C@@H](CS)C(=O)N1CCC[C@H]1C(=O)O` [epicaptopril], the “protective effects on memory” value in series [1] was “do not have protective effects against loss of memory of previously learned tasks”. Turning to `C[C@H](CS)C(=O)N1CCC[C@H]1C(=O)O` [captopril], the “protective effects on memory” value in series [1] is listed as “possess protective effects on memory of previously learned tasks”. In the case of `COC(=O)C1=CCCN(C)C1` [arecoline], in the series with Male albino (BKW) mice (mouse, in vivo), the “basal learning (speed of habituation)” value is “the time course of the basic 'learning' or habituation was unaffected”. Turning to `COc1ccc([C@@H]2Sc3ccccc3N(CCN(C)C)C(=O)[C@@H]2OC(C)=O)cc1` [diltiazem], in series [1], the “protective effects on memory” value is given as “possess protective effects on memory of previously learned tasks”. Besides, the “antagonism of impairment in habituation caused by acute challenge with scopolamine” value in the series with Male albino (BKW) mice (mice, scopolamine 0.25 mg/kg i.p. acute challenge (days 6 and 10 for diltiazem), arecoline 50 mg/kg/day i.p. infusion, hydergine 0.1 mg/kg p.o. daily, listed as Diltiazem) is “found to antagonize the impairment in habituation performance”.

Turning to `CN1[C@@H]2C[C@@H](OC(=O)[C@H](CO)c3ccccc3)C[C@H]1[C@@H]1O[C@@H]12` [scopolamine], the “influence on habituation of the challenge agent, daily challenge” value in the series with Male albino (BKW) mice (mouse, in vivo) is on record as “The habituation was impaired throughout the time of scopolamine challenge”. For the same molecule, in the series on Male albino (BKW) mice (mouse, in vivo, ip, 0.25 mg/kg), the autonomic disturbance result was “did not cause autonomic disturbance” and the effect on vision entry is on record as “lack of effect on vision”.
